Reference: US20220281825A1 (priority 2016, published 2022)

How the values were obtained:
JUNV = experiment: organism not typed; format: cell-based, Junin (JUNV); conditions: for EC50: 120 h, read-out: JUNV EC50 uM
VSV-p = experiment: microbe, parasite or virus in culture; format: cell-based; conditions: Vesicular stomatitis virus, Vero, 24 h, read-out: VSV-p EC50 (nM)
[1] = guinea pig, 1 h, pH 7.4
[2] = 1 h, pH 7.4
[3] = 1 h, pH 7.4; remark: listed apart in the source
GTOV-p = experiment: organism not typed; format: cell-based, Guanarito (GTOV); conditions: Vero, 24 h, read-out: GTOV-p EC50 (nM)
LASV-p = experiment: organism not typed; format: cell-based, Lassa (LASV); conditions: Vero, 24 h, read-out: LASV-p EC50 (nM)
LCMV = experiment: microbe, parasite or virus in culture; format: cell-based, lymphocytic choriomeningitis virus (LCMV); conditions: for EC90: Mammarenavirus choriomeningitidis, read-out: LCMV EC90 uM
TCRV-p = experiment: organism not typed; format: cell-based; conditions: Vero, 24 h, read-out: TCRV-p EC50 (nM)
[4] = 1 h, pH 7.4; remark: listed apart in the source
in vitro = conditions: African green monkey
JUNV-p = experiment: organism not typed; format: cell-based, Junin (JUNV); conditions: Vero, 24 h, read-out: JUNV-p EC50 (nM)
LASV = experiment: organism not typed; format: cell-based, Lassa (LASV); conditions: for EC50: 120 h, read-out: LASV EC50 uM
in vivo = conditions: guinea pig, po, 10 mg/kg
MACV-p = experiment: organism not typed; format: cell-based, Machupo (MACV); conditions: Vero, 24 h, read-out: MACV-p EC50 (nM)
[5] = guinea pig, in vivo, 10 mg/kg
[6] = test system: native replicating Tacaribe (TCRV) virus; experiment: microbe, parasite or virus in culture; format: cell-based; conditions: for EC50: Mammarenavirus tacaribeense, Vero, 120 h, read-out: TCRV EC50 uM
[7] = 1 h, pH 7.4; remark: listed apart in the source
hERG channel = hERG channel (Homo sapiens, UniProt Q12809); conditions: pH 7.4
[8] = 1 h, pH 7.4; remark: listed apart in the source

hERG channel, sequence (Q12809 whole entry): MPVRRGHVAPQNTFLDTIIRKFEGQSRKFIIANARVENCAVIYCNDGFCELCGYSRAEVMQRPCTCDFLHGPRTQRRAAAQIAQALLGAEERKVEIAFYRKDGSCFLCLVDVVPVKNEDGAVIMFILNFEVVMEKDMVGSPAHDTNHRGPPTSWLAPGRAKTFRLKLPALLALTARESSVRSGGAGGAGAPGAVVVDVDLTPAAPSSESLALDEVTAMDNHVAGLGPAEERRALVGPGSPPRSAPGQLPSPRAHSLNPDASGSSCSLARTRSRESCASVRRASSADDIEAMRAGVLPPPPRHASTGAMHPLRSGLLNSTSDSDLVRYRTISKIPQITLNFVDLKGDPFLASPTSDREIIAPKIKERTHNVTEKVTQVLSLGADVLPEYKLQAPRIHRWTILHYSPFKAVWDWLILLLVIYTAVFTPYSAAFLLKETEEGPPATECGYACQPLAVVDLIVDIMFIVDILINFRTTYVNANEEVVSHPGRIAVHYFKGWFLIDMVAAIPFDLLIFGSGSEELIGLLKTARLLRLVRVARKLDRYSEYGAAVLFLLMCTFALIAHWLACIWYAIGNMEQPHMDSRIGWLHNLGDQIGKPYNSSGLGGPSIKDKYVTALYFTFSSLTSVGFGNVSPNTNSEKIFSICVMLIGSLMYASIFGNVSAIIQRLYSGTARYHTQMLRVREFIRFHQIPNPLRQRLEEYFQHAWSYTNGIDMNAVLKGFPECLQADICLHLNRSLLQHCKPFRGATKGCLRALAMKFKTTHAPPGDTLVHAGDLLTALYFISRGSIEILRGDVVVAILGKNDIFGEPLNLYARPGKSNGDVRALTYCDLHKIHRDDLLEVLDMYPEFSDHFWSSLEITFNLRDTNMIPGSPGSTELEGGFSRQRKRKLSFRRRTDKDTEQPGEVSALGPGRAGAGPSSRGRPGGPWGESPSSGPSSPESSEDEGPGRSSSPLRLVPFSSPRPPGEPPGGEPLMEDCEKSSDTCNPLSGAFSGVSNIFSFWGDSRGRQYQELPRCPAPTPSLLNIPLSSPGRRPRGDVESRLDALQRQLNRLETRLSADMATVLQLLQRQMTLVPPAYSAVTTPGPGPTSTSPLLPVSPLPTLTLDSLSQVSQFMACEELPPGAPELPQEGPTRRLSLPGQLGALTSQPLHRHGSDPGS

## CC(C)Oc1ccc(-n2cnc3ccc(-c4ccc(C(C)(C)O)cc4)cc32)cc1 [Example A17, 2-(4-{1-[4-(propan-2-yloxy)phenyl]-1H-1,3-benzodiazol-6-yl}phenyl)propan-2-ol]
JUNV
  JUNV SI: 82
  EC50: 0.115 µM
VSV-p
  EC50: > 1000 nM
[1]
  Percent parent compound remaining at 60 minutes in liver microsomes, Guinea: 62%
[2]
  Percent parent compound remaining at 60 minutes in liver microsomes, Rat: 86%
[3]
  Percent parent compound remaining at 60 minutes in liver microsomes, Human: 69%
GTOV-p
  EC50: 0.52 nM
LASV-p
  EC50: 1.1 nM
LCMV
  LCMV SI90: 12
  EC90: 0.71 µM
TCRV-p
  EC50: 0.6 nM
[4]
  Percent parent compound remaining at 60 minutes in liver microsomes, Mouse: 44%
In vitro
  CC50: 5810 nM
JUNV-p
  EC50: 0.2 nM
LASV
  LASV SI: 249
  EC50: 0.06 µM
In vivo
  Cmax: 639 ng/mL
  Tmax: 1 h
  half-life: 4 to 6 h
MACV-p
  EC50: 0.2 nM
[5]
  oral exposure: demonstrated oral exposure
[5]; po
  T ½: 4 to 6 h
[6]
  TCRV SI50: 609
  EC50: 0.023 µM
[7]
  Percent parent compound remaining at 60 minutes in liver microsomes, Monkey: 7%

## CC(C)Oc1ccc(-n2cnc3ccc(-c4ccc5[nH]ccc5c4)cc32)cc1 [Example A24, 6-(1H-indol-5-yl)-1-[4-(propan-2-yloxy)phenyl]-1H-1,3-benzodiazole]
JUNV
  JUNV SI: 53
  EC50: 0.56 µM
[1]
  Percent parent compound remaining at 60 minutes in liver microsomes, Guinea: 0%
[2]
  Percent parent compound remaining at 60 minutes in liver microsomes, Rat: 32%
[3]
  Percent parent compound remaining at 60 minutes in liver microsomes, Human: 63%
GTOV-p
  EC50: 0.3 nM
LASV-p
  EC50: 0.91 nM
LCMV
  LCMV SI90: 18
  EC90: 0.56 µM
TCRV-p
  EC50: 15.9 nM
In vitro
  CC50: 71300 nM
JUNV-p
  EC50: 1.7 nM
LASV
  LASV SI: 527
  EC50: 0.06 µM
MACV-p
  EC50: 3.7 nM
[6]
  TCRV SI50: 7100
  EC50: 0.01 µM

## CC(C)Oc1ccc(-c2cnc3ccc(-c4ccc(C(C)(C)O)cc4)cn23)cc1 [Example C1, 2-(4-{3-[4-(propan-2-yloxy)phenyl]imidazo[1,2-a]pyridin-6-yl}phenyl)propan-2-ol]
JUNV
  JUNV SI: 352
  EC50: 0.055 µM
VSV-p
  EC50: > 1000 nM
[1]
  Percent parent compound remaining at 60 minutes in liver microsomes, Guinea: 42%
[2]
  Percent parent compound remaining at 60 minutes in liver microsomes, Rat: 77%
[3]
  Percent parent compound remaining at 60 minutes in liver microsomes, Human: 76%
GTOV-p
  EC50: 0.08 nM
LASV-p
  EC50: 0.59 nM
LCMV
  LCMV SI90: 37
  EC90: 0.82 µM
hERG channel
  hERG % Inhibition: 55%
TCRV-p
  EC50: 1.45 nM
[4]
  Percent parent compound remaining at 60 minutes in liver microsomes, Mouse: 22%
In vitro
  CC50: 7520 nM
JUNV-p
  EC50: 0.82 nM
LASV
  LASV SI: 921
  EC50: 0.025 µM
MACV-p
  EC50: 0.7 nM
[6]
  TCRV SI50: 2500
  EC50: 0.003 µM
[7]
  Percent parent compound remaining at 60 minutes in liver microsomes, Monkey: 16%

## CC(C)Oc1ccc(-c2ccc3ncc(-c4ccc(OC(C)C)cc4)n3c2)cc1 [Example C2, 3,6-bis[4-(propan-2-yloxy)phenyl]imidazo[1,2-a]pyridine]
hERG channel
  hERG % Inhibition: 89%
In vivo
  Cmax: 156 ng/mL
  Tmax: 1 h
[5]
  oral exposure: demonstrated oral exposure

## Cc1c(-c2ccc(OC(C)C)cc2)ccc2ncc(-c3ccc(OC(C)C)cc3)n12 [Example C51, 5-methyl-3,6-bis[4-(propan-2-yloxy)phenyl]imidazo[1,2-a]pyridine]
[1]
  Percent parent compound remaining at 60 minutes in liver microsomes, Guinea: 95%
[2]
  Percent parent compound remaining at 60 minutes in liver microsomes, Rat: 75%
[3]
  Percent parent compound remaining at 60 minutes in liver microsomes, Human: 100%
[8]
  Percent parent compound remaining at 60 minutes in liver microsomes, Dog: 82%
GTOV-p
  EC50: 0.21 nM
LASV-p
  EC50: 0.31 nM
hERG channel
  hERG % Inhibition: 49%
TCRV-p
  EC50: 0.37 nM
[4]
  Percent parent compound remaining at 60 minutes in liver microsomes, Mouse: 92%
In vitro
  CC50: 4190 nM
JUNV-p
  EC50: 0.15 nM
MACV-p
  EC50: 0.13 nM
[7]
  Percent parent compound remaining at 60 minutes in liver microsomes, Monkey: 21%
